# Laboratory results reported in patent publication US20120130146A1, “CONTINUOUS ADMINISTRATION OF CILENGITIDE IN CANCER TREATMENTS” (Merck Patent GmbH, priority 2009, published 2012).
# System: newly diagnosed glioblastoma (GBM)
# Assay: Phase I/IIa trial of cilengitide and temozolomide with concomitant radiotherapy in newly diagnosed glioblastoma
# Assay type: in vivo, human
# Description: Purpose: To evaluate safety, toxicity, and efficacy of the combination of the cyclic RGD pentapeptide Cilengitide (=cyclo-(Arg-Gly-Asp-DPhe-NMe-Val)), an inhibitor of integrins avβ3 and avβ5, in addition to standard temozolomide (TMZ) and radiotherapy (RT).
# Patients and methods: Fifty-two pts (PS 0-1: 92%, 2: 8%; median age 57 yrs) after biopsy (n=9/17%) or tumor resection (n=43/83%) were treated with standard TMZ/RT (Stupp et al. NEJM 2005). In addition Cilengitide (500 mg i.v., 2×/week) was started one week before TMZ/RT and given throughout for the duration of chemotherapy or until progression. Primary endpoint was progression free survival rate at 6 months (target: 65%). Patients were followed with MRI every 2 months. Histopathologic diagnosis and MRI imaging were independently reviewed, MGMT promotor methylation status was assessed in 45 (86.5%) pts.
# [1] = Cilengitide 500 mg i.v. 2x/week in addition to standard TMZ/RT
compound,measurement,setting,value
"CC(C)[C@H]1C(=O)N[C@@H](CCCN=C(N)N)C(=O)NCC(=O)N[C@@H](CC(=O)O)C(=O)N[C@H](Cc2ccccc2)C(=O)N1C [Cilengitide, cyclo-(Arg-Gly-Asp-DPhe-NMeVal)]",haematological grade 3 and 4 toxicity: lymphopenia,[1],53.8%
same,haematological grade 3 and 4 toxicity: neutropenia,[1],9.6%
same,haematological grade 3 and 4 toxicity: thrombocytopenia,[1],13.4%
same,patients with treatment related non-hematologic grade 3 toxicities,[1],5.7%
same,patients progression free at 6 months (PFS-6),"all 52 pts, Cilengitide in addition to TMZ/RT",65.4%
same,tolerability,combination of Cilengitide and TMZ/RT,well tolerated
same,PFS-6 rate,"subgroup with methylated MGMT promoter (23/52), Cilengitide in addition to TMZ/RT",91%
same,PFS-6 rate,"subgroup with unmethylated MGMT promotor (22/52), Cilengitide in addition to TMZ/RT",40.9%
